Results on 2 molecules are retold here after ChEMBL document CHEMBL1128813, “Inhibitors of glucosidases with related structures and inverse specificity” (Bioorg Med Chem Lett, 1995).

The structures appear in SMILES notation.

Experiment [1] in a line: Inhibitory activity against Beta-glucosidase from Almond. Also noted: species or system Prunus dulcis.
Experiment [2] can be described thus: Inhibitory activity against Beta-glucosidase from E-coli. Also noted: species or system Escherichia coli.
The nature of experiment [3]: Inhibitory activity against Beta-glucosidase from Yeast. Also noted: species or system Saccharomyces cerevisiae.

Regarding `OCC1O/C(=N\O)C(O)C(O)C1O` (centres undefined), the Ki (as a rule, the dissociation constant of the complex between target and ligand, obtained from inhibition or displacement) in experiment [1] was 100 µM.

Take `O=[N+]([O-])c1ccc(O/N=C2\OC(CO)C(O)C(O)C2O)c([N+](=O)[O-])c1` (centres undefined): the inhibition constant Ki in experiment [1] worked out at 80 µM; in experiment [2] it was 120 µM; in experiment [3], 2.5 µM.
